Measurements taken from patent US9133255B2, “Products and methods using soy peptides to lower total and LDL cholesterol levels” (SOY LABS, LLC, priority 2006, dated 2015).

Experiments:
[1] = system: tumorigenic (RWPE-2) prostate cells; details: 2 uM lunasin, cited from earlier work
deacetylated histone H4 = deacetylated histone H4 (Homo sapiens, UniProt P62805); details: cited from earlier work
skin tumor = details: mice, applied topically, ethanol as delivery system; cited from earlier work
[2] = target: T1, histone H3 acetylation by PCAF (Gallus gallus, UniProt P84229); assay: H3 histone acetyltransferase (HAT) assay with PCAF, chicken erythrocyte core histones; format: biochemical; details: vs untreated control, FIG. 7
T1 construct: Core histones purified from chicken erythrocyte cells were used as templates in histone acetylase (HAT) reactions; purchased Upstate/Millipore; host or cells: chicken erythrocytes (histones)
Description: The invention further provides an in vitro assay that can be used to screen potential sources of lunasin or analogues, fragments or variants of lunasin for biologically active material useful in the methods of the present invention. In one embodiment of the present invention, core histones purified from acid-extracted proteins of HeLa cells and chicken erythrocyte cells as well as recombinant histone H3 (commercially available from Upstate/Millipore) are used as templates in histone acetylase (HAT) reactions using PCAF histone acetylase enzyme in the presence or absence of lunasin. […] Chemiluminescent signals from antibody complexes can be visualized using standard chemiluminescent reagents and exposed to Kodak BioMAX film, developed and spot densitometer measured by using digital scanner and UN-SCAN-IT software program from Silk Scientific (Orem, Utah).
Biological activity of LeSC (A), LeSC+SF (B), digested LeSC+SF (C), digested LeSC (D), digested soy protein isolate (E) and digested soy concentrate (F) was measured using the H3 histone acetyltransferase (HAT) assay (see Example 8.) Around 100 mg total protein of LeSC, LeSC+SF, soy protein isolate and soy concentrate were digested by mixing pancreatin (Sigma Life Sciences, Saint Louis, Mo.) at 1:1 (w/w) and incubating for 30 min. at 40° C. […]

[3] = cited from earlier work
[4] = system: histone H3 and H4 acetylation; details: cited from earlier work
C3H/T101/2 cells = details: cited from earlier work
[5] = target: T2, histone H3 acetylation by PCAF (Homo sapiens, UniProt P68431); assay: HAT assay with PCAF, HeLa core histones; format: biochemical; details: FIG. 8
T2 construct: The core histones isolated from untreated HeLa cells were used as a negative control; purchased Upstate/Millipore; host or cells: HeLa cells (histones)
Description: A confirmatory experiment to determine the biological activity of digested and undigested LeSC and LeSC+SF was conducted using a different core histone template. This time we used the core histones extracted from HeLa tumor cells. Unlike the chicken erythrocyte cells, core histones from sodium butyrate treated HeLa cells are commercially available (Upstate/Millipore, Piscataway, N.J.), and can be used as a positive control for histone acetylation. The core histones isolated from untreated HeLa cells were used as a negative control (low levels of histone acetylation) and as template for the HAT assay.
The HAT bioactivity assay was conducted using acid extracted core histones from HeLa cells (Upstate/Millipore) as a template (temp (−) control) for the PCAF catalyzed HAT reaction. […] The numbers below the legend indicate relative densitometer readings normalized using immunosignal from the template (temp). […]
LeSC+SF was partially digested by mixing it with freshly prepared pancreatin solution (10 ug/mL of distilled water) in a 1:0.5, (w/w) ratio. […] However, the conditions for the partial digestion of LeSC+SF has to be determined empirically by analyzing digestion products for lunasin content (FIG. 6) and biological activity using the HAT assay (FIG. 8.)

[6] = system: non-tumorigenic (RWPE-1) prostate cells; details: 2 uM lunasin, cited from earlier work
HMG-CoA reductase = HMG-CoA reductase expression in HepG2 cells, Western blot; format: cell-based; details: 10 uM synthetic lunasin 24 h, cholesterol-free media 24 h, densitometry, FIG. 2
Description: (§1) In cell culture of HepG2 liver cells, it is possible to activate SREBP and increase the expression of HMG-CoA reductase and LDL-receptor by removing cholesterol in the growth media. This can be achieved by exposing the cells to serum-free media for 24 hours (31, 32).
(§2) In the first experiment, HepG2 cells (1×10^6) were treated with or without 10 uM synthetic lunasin in DMEM with 10% FBS for 24 hours before growth media was replaced with cholesterol-free media to activate SREBP. After 24 hours, total protein was extracted and 10 ug protein was loaded onto 10% Tris-glycine gels, electroblotted onto nitrocellulose membrane, and immunostained with primary antibodies raised against HMG-CoA reductase and actin (to show equal loading of proteins). Spot densitometer values are obtained by digital scanning and Un-Scan It software, and represent mean and standard deviation of data from three separate experiments.

E1A-transfected cells = details: cited from earlier work
Sp1 = Sp1 level in HepG2 cells, Western blot; format: cell-based; details: 10 uM synthetic lunasin
Description: Unlike HMG-CoA reductase, SREBP activation of LDL-receptor by sterol depletion requires increased recruitment of Sp1 co-activator to a site adjacent to SREBP in the promoter/regulatory sequence of LDL-receptor gene (25). […] To test this hypothesis, the level of Sp1 was determined in lunasin-treated growth media and cholesterol-free media by Western analysis using Sp1 antibody, as follows: HepG2 cells (1×10^6) were grown from confluence in DMEM with 10% FBS for 24 hours before growth media was replaced with fresh growth media or cholesterol-free media (to activate SREBP) and treated with, or without 10 uM synthetic lunasin. After 24 hours, total protein was extracted from each treatment and 10 ug protein loaded onto 10% Tris-glycine gels, electroblotted onto nitrocellulose membrane, and immunostained with primary antibodies raised against Sp1 and actin (to show equal loading of proteins). Spot densitometer values were obtained by digital scanning and Un-Scan It software and represent data from one experiment.

LDL-receptor = LDL-receptor expression in HepG2 cells, Western blot; format: cell-based; details: 10 uM synthetic lunasin 24 h, cholesterol-free media 24 h, densitometry, FIG. 3
Description: as §1
as §2, with “the second” for “the first”, “media is” for “media was”, “ug proteins” for “ug protein was”, “against LDL-receptor” for “against HMG-CoA reductase”, “values were” for “values are”

p21/WAF1/Cipi = details: NIH 3T3 cells pre-treated 24 hours, eight days after E1A transfection; cited from earlier work

## lunasin: natural, synthetically or recombinantly obtained soybean lunasin polypeptide (SEQ ID 2), small subunit of a cotyledon-specific 2S albumin
[1]; RWPE-2 cells, 24 hours
  number of genes up-regulated: two
[1]; tumorigenic epithelial cells
  genes down-regulated: No genes were down-regulated
Deacetylated histone H4
  binding to histones: binds preferentially to deacetylated histone H4
Skin tumor
  skin tumor formation: reduce skin tumor formation
[2]
  H3 acetylation by PCAF (biological activity), undigested sample: significant reduction in H3 acetylation
[3]
  water solubility: water soluble
[4]
  histone H3 and H4 acetylation: inhibits histone H3 and H4 acetylation
C3H/T101/2 cells; cells pre-treated with lunasin, exposed to DMBA and MCA
  reduction of foci formation: 70%
C3H/T101/2 cells; single 24 hour exposure, assays lasted six weeks
  concentration sufficient to suppress foci formation: 125 nM
[5]
  H3 acetylation by PCAF (biological activity), undigested sample: Significant reduction in H3 acetylation
[6]; 24 hours, of 14500 genes, RWPE-1 and RWPE-2 together
  number of genes with greater than twofold change in expression: 123 genes
[6]; RWPE-1 cells, 24 hours
  number of genes up-regulated: 121 genes
[6]; non-tumorigenic epithelial cells
  genes down-regulated: No genes were down-regulated
HMG-CoA reductase
  reduction of HMG-CoA reductase expression: more than 50%
E1A-transfected cells
  apoptosis: induces apoptosis
Sp1; cholesterol-free media, FIG. 4, one experiment
  further increase of Sp1 levels: ~60%
Sp1; growth media, FIG. 4
  Sp1 levels, lunasin-treated vs control: not significantly different
LDL-receptor
  increase of LDL-receptor expression: more than 60%
p21/WAF1/Cipi
  increase in p21/WAF1/Cipi protein levels: five-fold
